Test results from article PMC4954948, “Functional and modular analyses of diverse endoglucanases from Ruminococcus albus 8, a specialist plant cell wall degrading bacterium” (Scientific Reports, 2016).

Legend:
Assay in all cases: isothermal titration calorimetry
Type in all cases: binding
Ra1831 TM1 = target: T1, Ra1831 TM1 (Hominimerdicola alba, UniProt E9SGH0); conditions: 25 °C, 50 mM sodium phosphate, 150 mM NaCl, pH 6.5; weak, parameters not deducible
T1 construct: gene CUS_6389; truncation: C-terminal half of Ra1831 with region of unknown function (CBM65-like) plus CBM37, GH5 domain removed

Ra2535 TM2 = target: T2, Ra2535 TM2 (Hominimerdicola alba, UniProt E9SAY7); conditions: 25 °C, 50 mM sodium phosphate, 150 mM NaCl, pH 6.5; single site model; read-out: affinity constant (converted)
T2 construct: gene CUS_8100
Text: isothermal titration calorimetry on Ra2535 TM2 | The affinity constants of Ra2535 TM1 and TM2 for cellopentaose were similar

Ra2535 TM1 = target: T3, Ra2535 TM1 (Hominimerdicola alba, UniProt E9SAY7); conditions: 25 °C, 50 mM sodium phosphate, 150 mM NaCl, pH 6.5; single site model; read-out: affinity constant (converted)
T3 construct: gene CUS_8100
Text: isothermal titration calorimetry on Ra2535 TM1 | The affinity constants of Ra2535 TM1 and TM2 for cellopentaose were similar

T3 sequence (E9SAY7 entry or part of it): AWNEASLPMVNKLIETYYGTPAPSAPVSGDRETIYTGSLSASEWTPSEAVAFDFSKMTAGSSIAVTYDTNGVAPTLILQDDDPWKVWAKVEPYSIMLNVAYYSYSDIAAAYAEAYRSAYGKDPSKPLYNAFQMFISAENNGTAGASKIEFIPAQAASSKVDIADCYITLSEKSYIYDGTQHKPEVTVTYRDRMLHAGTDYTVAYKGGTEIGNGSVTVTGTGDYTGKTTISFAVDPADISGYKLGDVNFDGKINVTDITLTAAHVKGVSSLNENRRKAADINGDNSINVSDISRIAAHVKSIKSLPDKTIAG
T1 sequence (E9SGH0 entry or part of it): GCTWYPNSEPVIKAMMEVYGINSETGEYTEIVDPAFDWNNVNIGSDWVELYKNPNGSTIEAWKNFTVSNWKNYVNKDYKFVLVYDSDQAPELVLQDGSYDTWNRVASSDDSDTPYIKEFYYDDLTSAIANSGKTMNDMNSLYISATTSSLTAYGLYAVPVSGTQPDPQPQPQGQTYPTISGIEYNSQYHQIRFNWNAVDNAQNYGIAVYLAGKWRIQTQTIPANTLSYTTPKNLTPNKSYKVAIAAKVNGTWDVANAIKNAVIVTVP
T2 sequence (E9SAY7 entry or part of it): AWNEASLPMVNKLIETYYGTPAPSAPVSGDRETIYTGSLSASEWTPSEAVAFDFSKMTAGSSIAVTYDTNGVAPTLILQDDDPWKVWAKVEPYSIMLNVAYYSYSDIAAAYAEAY

Compound: OC[C@H]1O[C@@H](O[C@H]2[C@H](O)[C@@H](O)[C@H](O[C@H]3[C@H](O)[C@@H](O)[C@H](O[C@H]4[C@H](O)[C@@H](O)[C@H](O[C@H]5[C@H](O)[C@@H](O)C(O)O[C@@H]5CO)O[C@@H]4CO)O[C@@H]3CO)O[C@@H]2CO)[C@H](O)[C@@H](O)[C@@H]1O (stereo partly drawn) [cellopentaose]
- isothermal titration calorimetry (Ra1831 TM1): The representative ITC data for Ra1831 TM1 was not very different from that of TM2
- Kd (Ra2535 TM2): 5.95 µM
- Kd (Ra2535 TM1): 5.95 µM
